From patent US11612652B2, “Lipids as synthetic vectors to enhance antigen processing and presentation ex-vivo in dendritic cell therapy” (PDS Biotechnology Corporation, priority 2015, dated 2023)
Entries after “also recorded” stand apart in the source; their conditions may differ.

Assays:
[1] = test system: BMDC (CD11c positive cells); assay: DQ-OVA uptake and processing by BMDC, flow cytometry; type: cell-based, mouse; conditions: for enhancement of DQ-OVA uptake and processing compared with known adjuvants (red fluorescence): one hour, 25 μM DOTAP nanoparticles, 10 μg/ml LPS or media alone
Protocol: In order to determine the effects of cationic lipids on antigen uptake and processing by dendritic cells ex-vivo, a fluorescent ovalbumin protein called DQ-OVA was used. DQ-OVA is non-fluorescent when intact, but emits both red and green fluorescence when the protein is degraded. BMDC were incubated at 37° C. or 4° C. for 1 hr with DQ-OVA alone, or DQ-OVA mixed with different concentrations of the cationic lipid DOTAP. The cells were then washed, fixed, and stained with fluorescent antibodies to CD11c, a marker for dendritic cells. Cells were then analyzed on an LSRII flow cytometer in both red and green fluorescent channels.
This represents the well-known mannose receptor mediated uptake of OVA by DC. […] Graphical representation of the fluorescent uptake of DQ-OVA into BMDC measured by flow cytometry.
This uptake and processing was inhibited at 4° C. confirming that active cytoskeletal rearrangements are required for this type of uptake. […] The effect of R-DOTAP was concentration dependent with 50 uM showing the greatest effect. To determine if the R-DOTAP enhancement of protein uptake is cell dependent, a mouse epithelial cell line was incubated with DQ-OVA under identical conditions as the BMDC. […] Further, they indicate that this enhancement is selective for dendritic cells and not other, non-antigen presenting cell types.
In order to determine whether lipid adjuvants could mediate the same effect as R-DOTAP, BMDC were incubated with DQ-OVA in media alone or with R-DOTAP as described for FIG. 1. In addition, BMDC were incubated under identical conditions with the potent lipid adjuvant lipopolysaccharide (LPS). Mouse bone marrow DC were incubated in the presence of fluorescent DQ-OVA for one hour at either 37° C. or 4° C./azide in the presence of 25 μM DOTAP nanoparticles, 10 μg/ml LPS or media alone, and analyzed by flow cytometry. […] Monophorphoryl lipid-A (MPL) is a lower toxicity derivative of LPS that is now an FDA approved adjuvant in several vaccines.

[2] = test system: HPV16-specific CD8+ T-cells; assay: IFN-gamma ELISPOT of splenocytes after vaccination with KF18 HPV peptide formulations; type: in vivo, C57 black mice; conditions: vaccinated Day 0 and Day 7, sacrificed Day 14
Protocol: C57 black mice were vaccinated with various formulations: […]
Group 1: KF18 HPV peptide ([…]) (SEQ ID NO: 4)
Group 2: KF18 HPV peptide+R-DOTAP liposomes
Group 3: KF18 HPV peptide+S-DOTAP liposomes
Group 4: KF18 peptide+MPL/Alum adjuvant
5 mice per group were injected with the various formulations. The mice were vaccinated on Day 0 and Day 7 and sacrificed on Day 14. The splenocytes were removed and ELISPOT studies performed. The splenocytes were stimulated with the peptide […] (RF9) (SEQ ID NO: 5), the HPV16 CD8+ T-cell epitope peptide recognized by the C57 mice. […] An additional example of this effect is observed with the cationic lipid DDA. […] However, it has been reported that in order to induce strong antigen-specific T-cell responses that DDA is used in combination with strong adjuvants (Brandt L. et al, ESAT-6 Subunit Vaccination against Mycobacterium tuberculosis, Infect Immun. 2000 February; 68(2): 791-795).

BMDC / OT-1 CD8+ T cells = assay: OT1 T cell proliferation (3H-thymidine uptake), cross-presentation of OVA by BMDC on MHC class I; type: cell-based, mouse; conditions: for uptake and cross-presentation of OVA by BMDC, OT1 proliferation, CPM of 3H-thymidine uptake: whole OVA and various lipid concentrations, 30 min, three day culture
Protocol: In the second method, T cells from a TCR transgenic mice (OT-1) were used in which all T cells are specific for an internal peptide of OVA. These T cells will only proliferate if presented with DC which have processed OVA and presented an OVA peptide on MHC class I molecules.
Thus, this represents a stringent assay for cross presentation. BMDC were incubated with different concentrations of the whole OVA protein in the presence or absence of two cationic lipids, either DOTAP or DOTMA for 1 hr at 37° C. The DC were then washed, fixed and added to the OVA peptide specific T cells. […] This response was dose dependent with respect to the OVA concentration, and was even apparent when DC were incubated with OVA at 4° C.
To examine the effect of other cationic lipids and neutral lipids on antigen uptake and cross presentation, BMDC were incubated in the presence of the whole OVA protein and various concentrations of DOTAP DOTMA, DOPC, DOEPC or DDA for 30 min at 37° C. or 4° C. DC were then washed and added to OT1 splenocytes (TCR transgenic T cells specific for the class I restricted OVA peptide […] (SEQ ID NO: 2)) in microtiter plates and cultured for three days at 37° C. […] Control cultures contained OT1 splenocytes and […] (SEQ ID NO: 2) only which bypasses the need for antigen processing.

[3] = test system: serum cytokines and chemokines; assay: Systemic cytokines in serum after vaccination, Luminex Mouse cytokine 20-plex panel; type: in vivo, Human HLA-A2 mice
Protocol: This study therefore focused on an evaluation of the systemic presence of cytokines after subcutaneous administration of cationic lipid vaccines. Human HLA-A2 mice that could recognize human HPV antigens were administered high and low doses of R-DOTAP+antigen.
Group 1: • Vaccinate mice with 100 μL of a 1:1 mixture of high dose R-DOTAP (3.4 mg/mL) and sucrose solution.
Group 2: • Vaccinate with 50 μg LPS as a positive control for cytokine induction
Group 3: • Vaccinate mice with 100 μL of high dose R-DOTAP+HPV antigens (1:1 Mixture of RDOTAP 3.4 mg/mL, and HPVMix 0.14 mg/mL)
Group 4: • Vaccinate mice with 100 μL of low dose R-DOTAP+HPV antigens (1:1 Mixture of RDOTAP 0.34 mg/mL, and HPVMix 0.14 mg/mL)
After a single vaccination all mice were bled as follows:
Approximately 200 μL of blood was withdrawn from each mouse at the above specified time points.
The cytokine analysis was performed by Luminex Assay following the manufacturer's instructions.
As a positive control, the mice were also vaccinated with the well-studied toll-like-receptor (TLR) agonist lipopolysaccharide (LPS).
Study Results:Mouse serum was analyzed using a Luminex Mouse cytokine 20-plex panel (cytokines listed below). Cytokine intensity levels were quantitated by comparing to a cytokine standard run in the same plate using Luminex software. […]

[4] = previous reported studies; cited from earlier work
TC-1 tumors = assay: Established TC-1 tumor model: tumor microenvironment, tumor volume, ELISPOT; type: in vivo, C57 mice
Protocol: C57 mice were divided into the following groups of 8 mice per group: R-DOTAP+HPV16 E7 peptide KF18 ([…]) (SEQ ID NO: 4) , GM-CSF+HPV16 E7 peptide KF18, R-DOTAP, GM-C SF, HPV16 E7 peptide KF18, untreated. 1×10^5 TC-1 tumor cells were injected into the flank of the mice on day 0. The various formulations were administered on Days 12 and 19 after tumor implantation. On day 19 4-5 mice per group were sacrificed and a number of evaluations performed to evaluate the immunology of the tumor microenvironment.
RF9 specific dextramer staining and flow cytometry were utilized to quantify the number of HPV-specific CD8+ T-cells that had infiltrated into the tumor micro-environment. The study quantified the number of CD8+ T cells specific to the mouse epitope RF9. These CD8+ T cells were measured as a percentage of all immune cells (CD45, CD3 and CD8) present in the tumor. Antigen specific T cells infiltrating into the tumor were measured using RF9 specific dextramers by flow cytometry. […] Data represents mean±SEM of 4-5 mice in each group.
On Day 19 flow cytometry was used to study the immuno-suppressive tumor microenvironment, specifically the regulatory T cell population. T regulatory cells (CD45+CD3+CD4+CD25+Foxp3+) cells infiltrated into tumors on day 14 and day 19.
Of critical importance to the clinical efficacy of any immunotherapy is the ratio of immune suppressive cells to tumor targeting CD8+ T cells within the tumor microenvironment. A lower ratio of immune suppressor cells to CD8+ T cells promotes improved prognosis for anti-tumor benefit. […] Cationic lipids appear to promote the preferential expansion of the right phenotype of effector T-cells in preference to Tregs.
The various formulations were evaluated for their impact on the established TC-1 tumors in the same study. […] Tumor volumes were measured using calipers. The naïve mice group are tumor bearing mice that remained untreated. The HPV16 E7 peptide used in the vaccine is KF18. […]
In this study, IFN-γ ELISPOT studies were also performed to quantify and understand the “quality” of tumor-specific T-cell generated. […]

For “Monophorphoryl lipid-A [MPL, reference compound]”, the “enhancement of DQ-OVA uptake and processing compared with known adjuvants (red fluorescence)” value [1] was “showed no ability to facilitate protein uptake in BMDC; also recorded: ineffective in promoting antigen uptake compared to both R-DOTAP and S-DOTAP” and the “HPV-specific CD8+ T-cell response (ELISPOT, RF9 stimulation)” value [2] was “significantly lower CD8+ T-cell response compared to R-DOTAP”.

In the case of `CCCCCCCC/C=C\CCCCCCCC(=O)OC[C@@H](COP(=O)(OCC)OCC[N+](C)(C)C)OC(=O)CCCCCCC/C=C\CCCCCCCC` (stereo partly drawn) [DOEPC, 1,2-dioleoyl-sn-glycero-3-ethylphosphocholine], the “uptake and cross-presentation of OVA by BMDC, OT1 proliferation, CPM of 3H-thymidine uptake” value (“uptake and cross-presentation of OVA” for short) (BMDC / OT-1 CD8+ T cells) is reported as “facilitated enhanced uptake and cross-presentation of OVA by BMDC; also recorded: showed strong enhancement of antigen presentation”.

With `CCCCCCCC/C=C\CCCCCCCC(=O)OC[C@H](COP(=O)([O-])OCC[N+](C)(C)C)OC(=O)CCCCCCC/C=C\CCCCCCCC` [DOPC, reference compound] the “uptake and cross-presentation of OVA” value (BMDC / OT-1 CD8+ T cells) was “also facilitated uptake and presentation; also recorded: showed some enhancement”.

For lipopolysaccharide [LPS], the “enhancement of DQ-OVA uptake and processing compared with known adjuvants (red fluorescence)” value [1] was “no such enhancement was observed”, the “time to systemic spike in cytokine levels” value ([3]; after vaccination) was ≤ 12 h and the “systemic induction of cytokines and chemokines in serum” value ([3]; single vaccination, pre bleed, 12, 24, 48 hours) was “increases in the systemic levels of IL-12, IP-10, KC, MCP-1 & MIG”.

In the case of `CCCCCCCC/C=C\CCCCCCCC(=O)OCC(C[N+](C)(C)C)OC(=O)CCCCCCC/C=C\CCCCCCCC` (stereo not drawn) [S-DOTAP, 1,2-dioleoyl-3-trimethylammonium propane], the “uptake and cross-presentation of OVA” value (BMDC / OT-1 CD8+ T cells) is listed as “also facilitated uptake and presentation; also recorded: identical ability to promote antigen uptake, internalization and processing, as well as maturation of dendritic cells”, the “HPV-specific CD8+ T-cell response (ELISPOT, RF9 stimulation)” value [2] is listed as “did not result in an enhanced CD8+ T-cell response beyond what was seen with the peptide alone” and the “in vivo antigen-specific immune responses” value [4] is listed as “neither S-DOTAP nor DDA induced effective in vivo antigen-specific immune responses”.

For `CCCCCCCCCCCCCCCCCC[N+](C)(C)CCCCCCCCCCCCCCCCCC` [DDA], the “observation on dilution with OVA” value (BMDC / OT-1 CD8+ T cells) is listed as “formed a precipitate when diluted with OVA”, the “uptake and cross-presentation of OVA” value (BMDC / OT-1 CD8+ T cells) is listed as “facilitated enhanced uptake and cross-presentation of OVA by BMDC; also recorded: showed strong enhancement of antigen presentation; also recorded: facilitate antigen uptake and presentation” and the “in vivo antigen-specific immune responses” value [4] is listed as “neither S-DOTAP nor DDA induced effective in vivo antigen-specific immune responses”.

In the case of `CCCCCCCC/C=C\CCCCCCCC(=O)OCC(C[N+](C)(C)C)OC(=O)CCCCCCC/C=C\CCCCCCCC` (stereo not drawn) [DOTAP, 1,2-dioleoyl-3-trimethylammonium propane], the “DQ-OVA uptake and processing, mean green fluorescence of CD11c positive cells” value ([1]; 37° C., 1 hr, versus DQ-OVA alone) is reported as “enhances antigen uptake and processing by DC”, the “cross presentation of OVA to CD8+ T cells, CPM of 3H-thymidine uptake” value (BMDC / OT-1 CD8+ T cells; BMDC with whole OVA, 1 hr at 37° C., washed, fixed) is reported as “cross presented antigen to the CD8+ T cells much more strongly than DC incubated with OVA without cationic lipid” and the “uptake and cross-presentation of OVA” value (BMDC / OT-1 CD8+ T cells) is reported as “facilitated enhanced uptake and cross-presentation of OVA by BMDC; also recorded: showed some enhancement”.

For GQAEPDRAHYNIVTF [antigen only], the tumor volume (TC-1 tumors; Day 26, calipers) was “about 200 mm^3” and the “effect on established TC-1 tumors” value (TC-1 tumors; formulations on Days 12 and 19, read Day 26) was “did not induce any tumor regression but inhibited tumor growth”.
